In patent US9862712B2, “Benzimidazole based EGFR inhibitors” (COUNCIL OF SCIENTIFIC & INDUSTRIAL RESEARCH, priority 2014, dated 2018):

How the values were obtained:
Log P (Table 3) = assay type: physicochemical; conditions: no method given
[1] = tested on: A549 Cell line (Lung Cancer Cell line); test: MTT cell proliferation assay, A549 Cell line; assay type: cell-based, human; conditions: Homo sapiens, 72 h, MTT; for viability at 0.01 µM: A549, 0.01 μM; for viability at 0.1 µM: A549, 0.1 μM; for viability at 2.5 µM: A549, 2.5 μM; for viability at 5 µM: A549, 5 μM; for viability at 10 µM: A549, 10 μM
MCF-7 Cell line = test: MTT cell proliferation assay, MCF-7 Cell line; assay type: cell-based; conditions: Homo sapiens, MCF7, 72 h, MTT; for viability at 0.01 µM: MCF-7, 0.01 μM; for viability at 0.1 µM: MCF-7, 0.1 μM; for viability at 2.5 µM: MCF-7, 2.5 μM; for viability at 5 µM: MCF-7, 5 μM; for viability at 10 µM: MCF-7, 10 μM
MDA-MB-436 Cell line = test: MTT cell proliferation assay, MDA-MB-436 Cell line; assay type: cell-based; conditions: Homo sapiens, 72 h, MTT; for viability at 0.01 µM: MDA-MB-436, 0.01 μM; for viability at 0.1 µM: MDA-MB-436, 0.1 μM; for viability at 2.5 µM: MDA-MB-436, 2.5 μM; for viability at 5 µM: MDA-MB-436, 5 μM; for viability at 10 µM: MDA-MB-436, 10 μM
In short: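 Cells seeded at 10,000 per well and exposed to serial compound dilutions for 72 h at 37 °C. Viability read by MTT, formazan dissolved in DMSO, absorbance at 600 nm. IC50 by nonlinear regression as concentration giving 50% absorbance reduction versus untreated cells.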

[2] = tested on: U87MG Cell line (Glioblastoma cell line); test: MTT cell proliferation assay, U87MG Cell line; assay type: cell-based; conditions: Homo sapiens, U-87 MG, U87MG, 72 h, MTT
HOP-62 Cell line = test: MTT cell proliferation assay, HOP-62 Cell line; assay type: cell-based; conditions: Homo sapiens, 72 h, MTT; for viability at 0.01 µM: HOP-62, 0.01 μM; for viability at 0.1 µM: HOP-62, 0.1 μM; for viability at 2.5 µM: HOP-62, 2.5 μM; for viability at 5 µM: HOP-62, 5 μM; for viability at 10 µM: HOP-62, 10 μM

Compound	melting point [°C]	logP (Log P (Table 3))	viability at 0.01 µM [1] [%]	viability at 0.1 µM [1] [%]	viability at 2.5 µM [1] [%]	viability at 5 µM [1] [%]	viability at 10 µM [1] [%]	viability at 0.01 µM (MCF-7 Cell line) [%]	viability at 0.1 µM (MCF-7 Cell line) [%]	viability at 2.5 µM (MCF-7 Cell line) [%]	viability at 5 µM (MCF-7 Cell line) [%]	viability at 10 µM (MCF-7 Cell line) [%]	viability at 0.01 µM (MDA-MB-436 Cell line) [%]	viability at 0.1 µM (MDA-MB-436 Cell line) [%]	viability at 2.5 µM (MDA-MB-436 Cell line) [%]	viability at 5 µM (MDA-MB-436 Cell line) [%]	viability at 10 µM (MDA-MB-436 Cell line) [%]	viability at 0.01 µM [2] [%]	viability at 0.1 µM [2] [%]	viability at 2.5 µM [2] [%]	also measured
COc1ccc(Nc2nc(N)c(-c3nc4ccccc4[nH]3)s2)cc1 [Molecule S4-M2, 5-(1H-benzo[d]imidazol-2-yl)-N^2-(4-methoxyphenyl)thiazole-2,4-diamine]	224 to 226	2.11	95	89.5	75.5	60.5	51.5	97	95.5	95.5	90.5	84.5	113	108	95.5	93.5	90.5	93	86.5	79.5	viability at 5 µM [2]: 68.5%; viability at 10 µM [2]: 55.5%; viability at 0.01 µM (HOP-62 Cell line): 99%; viability at 0.1 µM (HOP-62 Cell line): 93.5%; viability at 2.5 µM (HOP-62 Cell line): 85.5%; viability at 5 µM (HOP-62 Cell line): 77.5%; viability at 10 µM (HOP-62 Cell line): 75.5%
Nc1nc(Nc2ccc([N+](=O)[O-])cc2)sc1-c1nc2ccccc2[nH]1 [Molecule S4-M3, 5-(1H-benzo[d]imidazol-2-yl)-N^2-(4-nitrophenyl)thiazole-2,4-diamine]	260 to 262	3.32	97.6	90.4	81.8	71.8	62.8	99.6	92.4	90.8	84.8	72.8	99.6	94.4	90.8	79.8	66.8	96.6	82.4	69.8	viability at 5 µM [2]: 55.8%; viability at 10 µM [2]: 30.8%; viability at 0.01 µM (HOP-62 Cell line): 99.6%; viability at 0.1 µM (HOP-62 Cell line): 94.4%; viability at 2.5 µM (HOP-62 Cell line): 90.8%; viability at 5 µM (HOP-62 Cell line): 90.8%; viability at 10 µM (HOP-62 Cell line): 88.8%
